Test results: article PMC2441954, “Phase I pharmacokinetic and pharmacodynamic study of the prenyl transferase inhibitor AZD3409 in patients with advanced cancer” (British Journal of Cancer, 2008)
Read-outs that look alike come from different tables or passages of the source.

Test: Plasma pharmacokinetics (LC-MS/MS, noncompartmental) in phase I patients
Type: in vivo, human
Conditions: for Cmax / AUC: human, plasma, oral; for AUC: read-out: AUC0−τ
Method: Pharmacokinetic studies were performed in all patients. Ethylenediaminetetraacetic acid blood samples were collected during the first cycle: on day 1 before the first drug intake and 0.5, 1, 2, 4, 6, 8, 12 and 24 h after administration; on days 3, 8 and 15 before the morning drug intake and 2 h after administration; and on day 22 before the morning drug intake and 0.5, 1, 2, 4, 6, 8, 12 and 24 h after administration. Samples were immediately put on ice and centrifuged at 4°C for 10 min at 1500 g. The resulting plasma was stored at −70°C until analysis. Plasma samples of the last three patients were not measured as the study was stopped before analysis.
The total plasma concentrations of AZD3409 ester and AZD3409 acid were determined by LC–MS/MS. The plasma samples were treated with dithiothreitol to reduce any disulphide bonds. The sample pretreatment was based on protein precipitation with acidic acetonitrile. Isotopically labelled analogues were used as internal standards. The method has been validated regarding selectivity, accuracy, precision and stability in human plasma. The lower limit of quantification was 3 ng ml^−1 for both AZD3409 ester and AZD3409 acid, with a 50 μl sample volume.
The following PK parameters were determined, either by direct observation or by noncompartmental analysis (WinNonlin, version 5.0.1; Pharsight, Mountain View, CA, USA): the minimal plasma concentration (Cmin), the maximal plasma concentration (Cmax), the area under the curve within one dosing interval (AUC0−τ) and total plasma clearance (Cl/F). Correlations between dose and Cmax levels and between dose and AUC0−τ were analysed on day 1 using the nonparametric Spearman's ρ (Rs) correlation test. Accumulation was tested with an exact Wilcoxon's rank paired signed test. Linear measures mixed effects models were constructed with SAS (SAS Institute Inc., Cary, NC, USA) to determine the effect of the dose on the trough plasma concentrations of both metabolites. The daily dose, time (days), gender and age were considered to be a fixed effect, and the patient variable was considered to be a random effect. Owing to the distribution of the trough plasma concentration log transformation was applied.

[1] = 500 mg once daily, day 1, dose 500 (once daily), N=3, mean (SD)
[2] = 500 mg once daily, day 22, dose 500 (once daily), N=2, absolute values
[3] = 750 mg b.i.d., day 1, dose 750 b.i.d., N=8, mean (SD)
[4] = 750 mg b.i.d., day 22, dose 750 b.i.d., N=3, mean (SD)
[5] = 1000 mg once daily, day 1, dose 1000 (once daily), N=3, mean (SD)
[6] = 1000 mg once daily, day 22, dose 1000 (once daily), N=3, mean (SD)
[7] = 1250 mg b.i.d., day 1, dose 1250 b.i.d., N=6, mean (SD)
[8] = 1250 mg b.i.d., day 22, dose 1250 b.i.d., N=4, mean (SD)
[9] = 1500 mg b.i.d., day 1, dose 1500 b.i.d., N=2, absolute values
[10] = 1750 mg b.i.d., day 1, dose 1750 b.i.d., N=4, mean (SD)
[11] = 1750 mg b.i.d., day 22, dose 1750 b.i.d., N=1

AUCester/AUCacid ratio (day 1): 2.5 | Spearman correlation (Rs) between dose and AUC (day 1): 0.52 | Spearman correlation (Rs) between dose and Cmax (day 1): 0.43 | AUCester/AUCacid ratio (day 22): 2.0 | Cl/F (day 22, dose 500 (once daily), N=2, absolute values): [263–308] l h^−1 | Cl/F (day 22, dose 750 b.i.d., N=3, mean (SD)): 309 (151) l h^−1 | Cl/F (day 22, dose 1000 (once daily), N=3, mean (SD)): 319 (172) l h^−1 | Cl/F (day 22, dose 1250 b.i.d., N=4, mean (SD)): 474 (231) l h^−1 | Cl/F (day 22, dose 1750 b.i.d., N=1): 1145 L/h | Ratio AUC0−τ day 22/day 1 (dose 500 (once daily), N=2, absolute values): [1.42–8.31] | Ratio AUC0−τ day 22/day 1 (dose 750 b.i.d., N=3, mean (SD)): 7.03 (8.46) | Ratio AUC0−τ day 22/day 1 (dose 1000 (once daily), N=3, mean (SD)): 1.54 (0.86) | Ratio AUC0−τ day 22/day 1 (dose 1250 b.i.d., N=4, mean (SD)): 1.28 (0.70) | Ratio AUC0−τ day 22/day 1 (dose 1750 b.i.d., N=1): 0.97 | Cmax [1]: 82.1 ng/mL | AUC [1]: 395 ng·h/mL | Cmax [2]: 229 to 257 ng/mL | AUC [2]: 1230 to 1460 ng·h/mL | Cmax [3]: 245 ng/mL | AUC [3]: 1070 ng·h/mL | Cmax [4]: 298 ng/mL | AUC [4]: 1720 ng·h/mL | Cmax [5]: 318 ng/mL | AUC [5]: 1540 ng·h/mL | Cmax [6]: 296 ng/mL | AUC [6]: 1930 ng·h/mL | Cmax [7]: 338 ng/mL | AUC [7]: 1780 ng·h/mL | Cmax [8]: 366 ng/mL | AUC [8]: 2120 ng·h/mL | Cmax [9]: 227 to 315 ng/mL | AUC [9]: 1460 to 1630 ng·h/mL | Cmax [10]: 362 ng/mL | AUC [10]: 1690 ng·h/mL | Cmax [11]: 445 ng/mL | AUC [11]: 1100 ng·h/mL
Compound: CSCC[C@H](NC(=O)c1cc(NC[C@@H]2C[C@H](S)CN2)ccc1CCc1ccc(F)cc1)C(=O)OC(C)C [AZD3409 ester]
